Values quoted from earlier work in patent US20170100411A1, “CORTICOSTEROID FORMULATIONS FOR MAINTAINING CORTICOSTEROID SYNOVIAL FLUID CONCENTRATIONS” (priority 2015, published 2017).

What was measured:
HPA axis = details: BID administration of 20 mg
[1] = molecular target: T1, glucocorticosteroid (GC) receptor (Homo sapiens, UniProt P04150)
T1 sequence (P04150 1-777): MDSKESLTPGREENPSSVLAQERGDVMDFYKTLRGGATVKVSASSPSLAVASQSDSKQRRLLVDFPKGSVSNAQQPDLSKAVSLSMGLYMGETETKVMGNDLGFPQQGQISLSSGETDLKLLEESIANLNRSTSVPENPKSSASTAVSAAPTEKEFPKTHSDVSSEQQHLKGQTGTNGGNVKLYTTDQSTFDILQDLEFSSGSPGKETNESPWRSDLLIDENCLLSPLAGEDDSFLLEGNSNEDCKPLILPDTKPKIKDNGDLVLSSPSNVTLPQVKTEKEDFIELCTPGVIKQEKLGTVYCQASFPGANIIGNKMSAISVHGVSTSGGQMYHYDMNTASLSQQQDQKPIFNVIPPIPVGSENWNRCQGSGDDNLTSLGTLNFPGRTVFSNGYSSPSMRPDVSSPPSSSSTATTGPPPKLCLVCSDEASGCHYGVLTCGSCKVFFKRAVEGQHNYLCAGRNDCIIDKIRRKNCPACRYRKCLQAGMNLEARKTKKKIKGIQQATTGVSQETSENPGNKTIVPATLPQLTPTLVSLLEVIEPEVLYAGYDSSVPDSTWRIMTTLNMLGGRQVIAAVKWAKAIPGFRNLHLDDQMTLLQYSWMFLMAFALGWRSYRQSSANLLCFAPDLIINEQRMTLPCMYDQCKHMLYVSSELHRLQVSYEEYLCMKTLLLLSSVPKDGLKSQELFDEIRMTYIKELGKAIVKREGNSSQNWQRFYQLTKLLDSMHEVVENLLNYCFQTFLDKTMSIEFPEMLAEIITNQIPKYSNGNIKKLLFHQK

| suppression of the HPA axis (published CCS %) (HPA axis) | potency at the GC receptor relative to other corticosteroids such as TCA [1] | Compound |
| --- | --- | --- |
| 80-90% | – | Methylprednisone |
| – | approximately 20 fold | CCC(=O)O[C@]1(C(=O)SCF)[C@H](C)C[C@H]2[C@@H]3C[C@H](F)C4=CC(=O)C=C[C@]4(C)[C@@]3(F)[C@@H](O)C[C@@]21C [fluticasone propionate] |
